# Results reported in patent publication US20100055169A1, “CATIONIC LIPIDS AND USES THEREOF” (ABBOTT LABORATORIES, priority 2008, published 2010).
# Assay: RiboGreen assay of siRNA encapsulation efficiency, in vitro formulations of Lipid-Based Particles
# Assay type: physicochemical
# Conditions: in vitro formulation b: Cationic lipid/PEG-cholesterol/DSPC/Chol 45/10/15/30 wt %, lipid:siRNA 25:1
# Method: The mixing solution of cationic lipids, cholesterol, non-cationic lipids and PEG-lipids was prepared in ethanol (total concentration at 10 mg/mL). siSTABLE (purchased from ThermoFisher) (sense-5′ GGGGAAAGCUGGCAAGAUUUU-3′SEQ ID NO. 1, antisense-5′-AAUCUUGCCAGCUUUCCCCUU-3′ SEQ ID NO: 2) % stock solution was prepared in 10 mg/mL of solution by dissolving 10 mg siRNA in 1 mL of RNAse-free UltraPure Water. The calculated amount of siRNA solution was added to 1 mL of citrate buffer (pH 4.0, 20 mM), to provide an siRNA concentration of 0.2 mg/mL, and warmed to 60 C. The calculated amount of lipid solution was warmed to 60 C, transferred to a 0.5 mL syringe with 28½ gauge needle, and injected into the citrate buffer with stirring at 60 C. After 3 minutes, 3 mL of PBS solution at room temperature (pH 7.4) was added into the lipid mixture with stirring. The Lipid-Based Particle solution was cooled to room temperature.
# The siRNA concentrations were measured using Quanti-iT RiboGreen RNA reagent (Molecular Probes, (R11490)). Vesicle sizes were characterized by dynamic light scattering with a DynaPro™ Plate Reader (Wyatt Technology) in 96-well half-area UV plate (Coring) after diluting the formulation sample (20 μL) in phosphate buffered saline (80 μL) at a pH of about 7-8. A 1% agarose gel-based assay was used for analyzing nuclease degradation and protection. Encapsulation efficiency (EE) was calculated using data obtained from a RiboGreen assay.
# RNA concentration and encapsulation efficiency were determined using a Quant-iT® Ribogreen RNA reagent and kit available from Invitrogen. The siRNA was released from the Lipid-Based Particle using one of the following reagents: ethanol, Triton X-100, or phenol/chloroform. The siRNA concentration is quantified using fluorescent reading at 480 nm/520 nm.
molecule,measurement,value
"CCCCC/C=C\C/C=C\CCCCCCCCOCC(CCN1CCC(n2ccnc2)C1)OCCCCCCCC/C=C\C/C=C\CCCCC (stereo not drawn) [Example 46, 1-(1-{3,4-bis[(9Z,12Z)-octadeca-9,12-dienyloxy]butyl}pyrrolidin-3-yl)-1H-imidazole]",% Encapsulation Efficiency,98%
"CCCCC/C=C\C/C=C\CCCCCCCCOCC(CCNCCCn1ccnc1)OCCCCCCCC/C=C\C/C=C\CCCCC (stereo not drawn) [Example 44, N-{3,4-bis[(9Z,12Z)-octadeca-9,12-dienyloxy]butyl}-N-[3-(1H-imidazol-1-yl)propyl]amine]",% Encapsulation Efficiency,98%
"CCCCC/C=C\C/C=C\CCCCCCCCOCC(CCN1C(C)CCC1C)OCCCCCCCC/C=C\C/C=C\CCCCC (stereo not drawn) [Example 51, 1-{3,4-bis[(9Z,12Z)-octadeca-9,12-dienyloxy]butyl}-2,5-dimethylpyrrolidine]",% Encapsulation Efficiency,99%
"CCCCC/C=C\C/C=C\CCCCCCCCOCC(CCNCCCN(C)C)OCCCCCCCC/C=C\C/C=C\CCCCC (stereo not drawn) [Example 48, N-{3,4-bis[(9Z,12Z)-octadeca-9,12-dienyloxy]butyl}-N′,N′-dimethylpropane-1,3-diamine]",% Encapsulation Efficiency,99%
"CCCCC/C=C\C/C=C\CCCCCCCCOC[C@H](CCNC(=O)CCN(CC)CC)OCCCCCCCC/C=C\C/C=C\CCCCC [Example 43, N^1-{(3S)-3,4-bis[(9Z,12Z)-octadeca-9,12-dienyloxy]butyl}-N^3,N^3-diethyl-beta-alaninamide]",% Encapsulation Efficiency,96.5%
"CCCCC/C=C\C/C=C\CCCCCCCCOCC(CCOCCC1CCCN1C)OCCCCCCCC/C=C\C/C=C\CCCCC (stereo not drawn) [Example 26, 2-(2-{3,4-bis[(9Z,12Z)-octadeca-9,12-dienyloxy]butoxy}ethyl)-1-methylpyrrolidine]",% Encapsulation Efficiency,99.9%
"CC/C=C\C/C=C\C/C=C\CCCCCCCCOCC(CCN1CCCC1)OCCCCCCCC/C=C\C/C=C\C/C=C\CC (stereo not drawn) [Example 42, 1-{3,4-bis[(9Z,12Z,15Z)-octadeca-9,12,15-trienyloxy]butyl}pyrrolidine]",% Encapsulation Efficiency,98%
"CCCCC/C=C\C/C=C\CCCCCCCCOCC(CCOCCN(CC)CC)OCCCCCCCC/C=C\C/C=C\CCCCC (stereo not drawn) [Example 25, N-(2-{3,4-bis[(9Z,12Z)-octadeca-9,12-dienyloxy]butoxy}ethyl)-N,N-diethylamine]",% Encapsulation Efficiency,96.1%
"CCCCC/C=C\C/C=C\CCCCCCCCOCC(CCOCCN1CC1)OCCCCCCCC/C=C\C/C=C\CCCCC (stereo not drawn) [Example 27, 1-(2-{3,4-bis[(9Z,12Z)-octadeca-9,12-dienyloxy]butoxy}ethyl)aziridine]",% Encapsulation Efficiency,97%
"CCCCCCCCCCCCCCCCCCOCC(CCN1CCCC1)OCCCCCCCCCCCCCCCCCC (stereo not drawn) [Example 37, 1-[3,4-bis(octadecyloxy)butyl]pyrrolidine]",% Encapsulation Efficiency,98.5%
"CCCCC/C=C\C/C=C\CCCCCCCCOC[C@H](CCOC(=O)NCCCN1CCCC1)OCCCCCCCC/C=C\C/C=C\CCCCC [Example 36, (3S)-3,4-bis[(9Z,12Z)-octadeca-9,12-dienyloxy]butyl 3-pyrrolidin-1-ylpropylcarbamate]",% Encapsulation Efficiency,99%
"CCCCCCCC/C=C\CCCCCCCCOCC(CCN1CCCC1)OCCCCCCCC/C=C\CCCCCCCC (stereo not drawn) [Example 34, 1-{3,4-bis[(9Z)-octadec-9-enyloxy]butyl}pyrrolidine]",% Encapsulation Efficiency,99%
"CCCCC/C=C\C/C=C\CCCCCCCCOCC(CCN1CCC1)OCCCCCCCC/C=C\C/C=C\CCCCC (stereo not drawn) [Example 49, 1-{3,4-bis[(9Z,12Z)-octadeca-9,12-dienyloxy]butyl}azetidine]",% Encapsulation Efficiency,99%
"CCCCC/C=C\C/C=C\CCCCCCCCOCC(CCOCCN(C)C)OCCCCCCCC/C=C\C/C=C\CCCCC (stereo not drawn) [Example 29, N-(2-{3,4-bis[(9Z,12Z)-octadeca-9,12-dienyloxy]butoxy}ethyl)-N,N-dimethylamine]",% Encapsulation Efficiency,96.4%
"CCCCC/C=C\C/C=C\C/C=C\C/C=C\CCCC(=O)OCC(CCN1CCCC1)OC(=O)CCC/C=C\C/C=C\C/C=C\C/C=C\CCCCC (stereo not drawn) [Example 35, 1-{[(5Z,8Z,11Z,14Z)-icosa-5,8,11,14-tetraenoyloxy]methyl}-3-pyrrolidin-1-ylpropyl(5Z,8Z,11Z,14Z)-icosa-5,8,11,14-tetraenoate]",% Encapsulation Efficiency,83.5%
"CCCCC/C=C\C/C=C\CCCCCCCCOCC(CCNCCCN1CCCC1)OCCCCCCCC/C=C\C/C=C\CCCCC (stereo not drawn) [Example 47, N-{3,4-bis[(9Z,12Z)-octadeca-9,12-dienyloxy]butyl}-N-(3-pyrrolidin-1-ylpropyl)amine]",% Encapsulation Efficiency,99%
"CCCCC/C=C\C/C=C\CCCCCCCCOCC(CCN(C)CCCN(C)C)OCCCCCCCC/C=C\C/C=C\CCCCC (stereo not drawn) [Example 45, N-{3,4-bis[(9Z,12Z)-octadeca-9,12-dienyloxy]butyl}-N,N′,N′-trimethylpropane-1,3-diamine]",% Encapsulation Efficiency,99%
"CCCCCCCC/C=C\CCCCCCCC(=O)OCC(CCN1CCCC1)OC(=O)CCCCCCC/C=C\CCCCCCCC (stereo not drawn) [Example 33, 1-{[(9Z)-octadec-9-enoyloxy]methyl}-3-pyrrolidin-1-ylpropyl (9Z)-octadec-9-enoate]",% Encapsulation Efficiency,99%
"CCCCC/C=C\C/C=C\CCCCCCCCC1(CCCCCCC/C=C\C/C=C\CCCCC)OCC(CCN(CC)CC)O1 (stereo not drawn) [Example 32, N,N-diethyl-N-(2-{2-[(8Z,11Z)-heptadeca-8,11-dienyl]-2-[(9Z,12Z)-octadeca-9,12-dienyl]-1,3-dioxolan-4-yl}ethyl)amine]",% Encapsulation Efficiency,98.6%
"CCCCC/C=C/C/C=C/CCCCCCCCOCC(CCN1CCCC1)OCCCCCCCC/C=C/C/C=C/CCCCC (stereo not drawn) [Example 41, 1-{3,4-bis[(9E,12E)-octadeca-9,12-dienyloxy]butyl}pyrrolidine]",% Encapsulation Efficiency,99%
"CCCCCC/C=C/CCCCCCCCOCC(CCN1CCCC1)OCCCCCCCC/C=C/CCCCCC (stereo not drawn) [Example 39, 1-{3,4-bis[(9E)-hexadec-9-enyloxy]butyl}pyrrolidine]",% Encapsulation Efficiency,99%
"CCCCCCCC/C=C/CCCCCCCCOCC(CCN1CCCC1)OCCCCCCCC/C=C/CCCCCCCC (stereo not drawn) [Example 40, 1-{3,4-bis[(9E)-octadec-9-enyloxy]butyl}pyrrolidine]",% Encapsulation Efficiency,97%
"1-[3,4-bis(hexadecyloxy)butyl]pyrrolidine [Example 38]",% Encapsulation Efficiency,99%
"CCCCC/C=C\C/C=C\CCCCCCCCOCC(CCN1CCCC1C)OCCCCCCCC/C=C\C/C=C\CCCCC (stereo not drawn) [Example 50, 1-{3,4-bis[(9Z,12Z)-octadeca-9,12-dienyloxy]butyl}-2-methylpyrrolidine]",% Encapsulation Efficiency,99%
